This series is described as follows: Solubility of docetaxel in various solvents. The format is physicochemical. The following applies: for solubility: read-out: Solubility of Docetaxel, Concentration. Here is the method: In consideration of the severe side effects associated with the use of polysorbates, such as TWEEN 80®, as solubilizers of docetaxel, solubility studies were conducted to determine non-toxic solvents that can effectively dissolve docetaxel.
Solubility of docetaxel was assessed using several different solvents that are well-tolerated in subjects, as well as polysorbates for comparison.

Like-named read-outs stand apart in the source and are kept apart here.

As for `CC(=O)O[C@@]12CO[C@@H]1C[C@H](O)[C@@]1(C)C(=O)[C@H](O)C3=C(C)[C@@H](OC(=O)[C@H](O)[C@@H](NC(=O)OC(C)(C)C)c4ccccc4)C[C@@](O)([C@@H](OC(=O)c4ccccc4)[C@H]21)C3(C)C` [Docetaxel, (2R,3S)—N-carboxy-3-phenylisoserine, N-tert-butyl ester, 13-ester with 5β-20-epoxy-1,2α,4,7β,10β,13α-hexahydroxytax-11-en-9-one 4-acetate 2-benzoate, trihydrate], the solubility is 35 mg/mL (oil or lipid, solvent LABROFAC™ (Capric triglyceride PEG 4 ester Macrogol 200)); 10 mg/mL (oil or lipid, solvent MAISINE™ 35-1 (Glycerol mono linoleate)); 7 mg/mL (oil or lipid, solvent PECEOL® (Glycerol mono Oleate 40)); 6 mg/mL (organic solvent or mixture, solvent 1-lactic acid); 15 mg/mL (organic solvent or mixture, solvent 2% Lutrol in PEG 400); 15 mg/mL (organic solvent or mixture, solvent 50% PEG 400/50% PG). Moreover, the solubility (organic solvent or mixture, solvent Acetic acid) amounted to 60 mg/mL; the solubility (organic solvent or mixture, solvent Benzyl alcohol) is 90 mg/mL; the solubility (organic solvent or mixture, solvent Benzyl benzoate) amounted to 13 mg/mL; the solubility (organic solvent or mixture, solvent Ethanol) is 120 mg/mL; the solubility (organic solvent or mixture, solvent Glycerol) turned out to be 1.65 mg/mL; the solubility (organic solvent or mixture, solvent Glycofurol) came to 200 mg/mL. Besides, the solubility was 17.6 mg/mL (organic solvent or mixture, solvent N-Methyl 2-Pyrrolidone); 10 mg/mL (organic solvent or mixture, solvent PEG 400); 10 mg/mL (organic solvent or mixture, solvent Propylene Glycol); 3.5 mg/mL (organic solvent or mixture, solvent Span 80); 50 mg/mL (organic solvent or mixture, solvent TPGS 1000); 90 mg/mL (organic solvent or mixture, solvent TWEEN 20®). Further, the solubility (organic solvent or mixture, solvent TWEEN 80®) came to 60 mg/mL. Besides, under “solvent Glycofurol”, the “Solubility of Docetaxel, Concentration” value is given as “most soluble”.

The record behind these values is patent US7772274B1, “Docetaxel formulations with lipoic acid” (Scidose, LLC, priority 2009, dated 2010).
